Data reported in patent publication US5025010A, “Benzothiazinone derivatives, and pharmaceuticals containing them” (Hoechst Aktiengesellschaft, priority 1987, dated 1991).
Where a name gives a salt, the structure may show the parent alone.

Experiments:
isolated rabbit aorta = test: isolated rabbit aorta: contraction of aorta rings depolarized with potassium chloride after pretreatment with the test substance; conditions: Oryctolagus cuniculus, concentration of 10^-6 M, KCl-depolarized aorta rings
Text: Their calcium antagonistic or calcium agonistic action can be shown using the model of the isolated rabbit aorta. This entails aorta rings being depolarized with potassium chloride, whereupon they contract. Pretreatment with the test substance is followed by a diminution in contraction in the case of the compounds acting as calcium antagonists, but by an intensification of contraction in the case of compounds acting as calcium agonists. For example, the compound from Example 2 at a concentration of 10^-6 M results in a 32% diminution in contraction. The compound from Example 3 at a concentration of 10^-6 M results in a 93% intensification of contraction.

calcium channels = test: displacement of tritium-labeled nitrendipine from membrane preparations containing isolated calcium channels; assay type: binding
Method: Their action on the calcium channels can be shown using the biochemical test model of the displacement of tritium-labeled nitrendipine. In this test, membrane preparations which contain isolated calcium channels are loaded with the labeled substance. After incubation with the test substance, the radioactivity released and the radioactivity remaining on the membrane are determined. The IC50 values shown by the compounds of the formula I, according to the invention, in this model are from 10^-6 molar to 10^-10 molar.

| SMILES | activation at 1 µM (isolated rabbit aorta; calcium agonistic action, read-out: intensification of contraction) [%] | IC50 (calcium channels) [nM] | inhibition at 1 µM (isolated rabbit aorta; calcium antagonistic action, read-out: diminution in contraction) [%] |
| --- | --- | --- | --- |
| COc1cc(CCN2CCN(C/C=C\COc3ccccc3[C@@]3(C(C)C)Sc4ccccc4N(C)C3=O)CC2)cc(OC)c1OC [Example 3, (R)-2-isopropyl-4-methyl-2-[2-[4-[4-(3,4,5-trimethoxyphenethyl)-1-piperazinyl]-2-cis-buten-1-yloxy]phenyl]-2H-1,4-benzothiazin-3(4H)-one dihydrochloride] | 93 |  |  |
| COc1cc(CCN2CCN(CC#CCOc3ccccc3[C@@]3(C(C)C)Sc4ccccc4N(C)C3=O)CC2)cc(OC)c1OC [Example 2, (R)-2-Isopropyl-4-methyl-2-[2-[4-[4-(3,4,5-trimethoxyphenethyl)-1-piperazinyl]-2-butyn-1 yloxy]phenyl]-2H-1,4-benzothiazin-3(4H)-one dihydrochloride] |  | 0.12 | 32 |
